From ChEMBL document CHEMBL1201862, “PubChem BioAssay data set” (2004) come the findings set out here.

For orientation: GI50 means the concentration giving 50% growth inhibition.

Structures are written as SMILES.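 Cultured in 96-well plates, cells were exposed to test compound for 48 hours across five concentrations. Abbreviation: GI50, concentration required for 50% inhibition of growth.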 Active and inactive are the calls of the source. No stated cut-off is given here; in the data, active = GI50 up to about 1.1 µM and inactive = higher.

Among the test systems are NCI-H522; OVCAR-3; UACC-62; SF-268; HOP-62; OVCAR-4; M14; UACC-257; SK-MEL-28; COLO 205; SNB-19; ACHN; SF-539; HT-29; OVCAR-8; Malme-3M; RXF 393.
Common to all, as to experiment: DTP human tumour cell line panel, 48 h

For `CC1=CC(=O)NP(=O)(Oc2ccc(C)cc2)N1` (stereo unspecified), the GI50 in the experiment on NCI-H522, in the experiment on OVCAR-3, with UACC-62, with SF-268, with HOP-62 and with OVCAR-4 was > 100 µM (inactive) throughout. Also, the GI50 with M14, in the experiment on UACC-257, in the experiment on SK-MEL-28, in the experiment on COLO 205, in the experiment on SNB-19 and in the experiment with ACHN was > 100 µM (inactive) each time. Further, the GI50 with SF-539, in the experiment on HT-29, with OVCAR-8 and with Malme-3M was > 100 µM (inactive) throughout.
For the molecule `NC(=S)N/N=C/c1cn(CCCl)c2ccccc12`, the GI50 in the experiment on NCI-H522 is 11.9 µM (inactive); with RXF 393 it was > 100 µM (inactive); with OVCAR-3 it was 36.8 µM (inactive); in the experiment on UACC-62, 30.2 µM (inactive); in the experiment on SF-268 it was > 100 µM (inactive); in the experiment on HOP-62, 89.5 µM (inactive). Also, the GI50 with M14 was 56.4 µM (inactive); in the experiment on UACC-257, 22 µM (inactive); in the experiment on SK-MEL-28, 63.5 µM (inactive); in the experiment on COLO 205, 46.5 µM (inactive); in the experiment with SNB-19, > 100 µM (inactive); in the experiment with HT-29 it was 23.9 µM (inactive). Besides, the GI50 with OVCAR-8 is 57.3 µM (inactive); in the experiment on Malme-3M, > 100 µM (inactive).
As to `CC[C@H]1[C@@H](C)C=C[C@@H](C)N1S(=O)(=O)c1ccc(C)cc1`, the GI50 with NCI-H522 is 30.3 µM (inactive); in the experiment on RXF 393, 48.6 µM (inactive); with OVCAR-3, > 100 µM (inactive); in the experiment on UACC-62 it was 97.7 µM (inactive); with SF-268, 75 µM (inactive); in the experiment with HOP-62, > 100 µM (inactive). Besides, the GI50 in the experiment on OVCAR-4 was > 100 µM (inactive); with M14 it was > 100 µM (inactive); with UACC-257 it was > 100 µM (inactive); in the experiment with SK-MEL-28, > 100 µM (inactive); in the experiment with COLO 205 it was > 100 µM (inactive); in the experiment with SNB-19, 0.693 µM (active). The GI50 is 67 µM (inactive) in the experiment on ACHN; > 100 µM (inactive) in the experiment with SF-539; > 100 µM (inactive) in the experiment on HT-29; > 100 µM (inactive) in the experiment on OVCAR-8; > 100 µM (inactive) in the experiment on Malme-3M.
On to `CCOC12OC3=C(CC1CC1=C(CCC1=O)O2)C(=O)CC3` (stereo unspecified), for which the GI50 with NCI-H522, in the experiment on RXF 393, in the experiment on OVCAR-3, with UACC-62, in the experiment on SF-268 and in the experiment with HOP-62 was > 100 µM (inactive) each time. For the same molecule, the GI50 in the experiment with OVCAR-4, in the experiment on M14, with UACC-257, with COLO 205, with SNB-19 and in the experiment with SF-539 was > 100 µM (inactive) throughout. For the same molecule, the GI50 with HT-29, with OVCAR-8 and in the experiment with Malme-3M was > 100 µM (inactive) in each case.
For the molecule `O=C1C2C3C=C4c5ccccc5N(c5ccccc5)C4(C2C(=O)N1c1ccc(Cl)cc1)[C@H]1C(=O)N(c2ccc(Cl)cc2)C(=O)[C@@H]31` (stereo partly specified), the GI50 is 82.6 µM (inactive) in the experiment on NCI-H522; > 100 µM (inactive) in the experiment with RXF 393; > 100 µM (inactive) with OVCAR-3; > 100 µM (inactive) with UACC-62; > 100 µM (inactive) with HOP-62; > 100 µM (inactive) with OVCAR-4. The GI50 is 35.7 µM (inactive) in the experiment on M14; > 100 µM (inactive) in the experiment with UACC-257; 64.7 µM (inactive) with COLO 205; > 100 µM (inactive) in the experiment with SNB-19; > 100 µM (inactive) in the experiment with SF-539; > 100 µM (inactive) in the experiment on HT-29. Besides, the GI50 with OVCAR-8 and with Malme-3M was > 100 µM (inactive) throughout.
